Measured values as given in patent EP4803517A1, “PROTEIN TRANSLATION INHIBITOR” (Duality Biologics (Shanghai) Co., Ltd., priority 2023, dated 2025).
Like-named read-outs stand apart in the source and are kept apart here.

Assays:
Test in all cases: Inhibition of in vitro proliferation of tumor cells (CTG, CellTiter-Glo)
Format in all cases: cell-based
MKN-45 = settings: Homo sapiens, 120 h; racemates; MKN-45 cells; 5 days of culture; CTG reagent; read-out: Proliferation inhibitory activity IC50 (nM) MKN-45
Experimental: (§1) Assay objective: To detect the inhibitory effects of the drug compounds on tumor cell proliferation, for example, the inhibitory activity thereof on the in vitro proliferation of NCI-H716, NCI-H1975, NCI-H1373, NCI-H647, NCI-H520, BT474, DLD-1, NCI-N87, NUGC-4, SNU-423, MKN-45, SK-OV-3, OVCAR3, Ls174T, HCC1954, and ES2 tumor cells. The cells were treated with the compounds at different concentrations in vitro. After 5 days of culture, the proliferation of the cells was detected using the CTG (CellTiter-Glo® Luminescent Cell Viability Assay, Promega, Cat. No. G7558) reagent, and the in vitro activity of the compounds was evaluated based on the IC50 value. 1. Cell preparation: NCI-H716, NCI-H1975, NCI-H1373, NCI-H647, NCI-H520, BT474, DLD-1, NCI-N87, NUGC-4, SNU-423, MKN-45, SK-OV-3, OVCAR3, Ls174T, HCC1954, and ES2 cells in the logarithmic phase were each taken, washed once with PBS, and then digested with 2-3 mL of trypsin for 2-3 min. After the cells were digested completely, 10-15 mL of a cell culture medium was added to elute the digested cells. The eluate was centrifuged at 1000 rpm for 5 min, and the supernatant was discarded. Subsequently, the resulting cells were resuspended in 10-20 mL of the cell culture medium to prepare a single-cell suspension. 2. Cell plating: The NCI-H716, NCI-H1975, NCI-H1373, NCI-H647, NCI-H520, NCI-N87, BT474, DLD-1, NCI-N87, NUGC-4, SNU-423, MKN-45, SK-OV-3, OVCAR3, Ls174T, HCC1954, and ES2 single-cell suspensions were each well mixed and adjusted to a viable cell density of 6 × 10^4 cells/mL with the cell culture medium. The density-adjusted cell suspensions were each well mixed and added to a 96-well cell culture plate at 50 µL/well. The culture plate was incubated in an incubator overnight (37 °C, 5% CO2). 3. Compound preparation: Each compound was dissolved in DMSO to prepare a stock solution with an initial concentration of 10 mM. There were 6 concentrations in total for the small molecule compound: 1000 nM, 333 nM, 111 nM, 37.03 nM, 12.34 nM, and 4.11 nM. 4. Sample addition: The prepared test samples at different concentrations were added to the culture plate, with two duplicate wells set for each sample. The culture plate was incubated in the incubator for 5 days (37 °C, 5% CO2). 5. Color development: The 96-well cell culture plate was taken out, and 50 µL of the CTG reagent was added to each well. The plate was then incubated at room temperature for 10 min. 6. Plate reading: The 96-well cell culture plate was taken out and placed in a microplate reader, and the chemiluminescence was measured using the microplate reader. 7. Data analysis: The cell viability was calculated according to the formula: (Lumtest drug - Lumblank control)/(Lumsolvent blank control - Lumblank control) × 100%. Using a nonlinear regression model in the GraphPad Prism software, a sigmoidal dose-survival rate curve was plotted, and the IC50 values were calculated. Table 2. IC50 values for the inhibition of the in vitro proliferation of tumor cells by the racemates of the small molecule compounds of the present application

BT474 = settings: Homo sapiens, BT-474, 120 h, 5 days of culture, CTG reagent, read-out: Proliferation inhibitory activity IC50 (nM) BT474
Experimental: as §1

DLD-1 = settings: Homo sapiens, 120 h, DLD-1 cells, 5 days of culture, CTG reagent, read-out: Proliferation inhibitory activity IC50 (nM) DLD-1
Experimental: as §1

NCI-N87 = settings: Homo sapiens, 120 h, racemates, 5 days of culture, CTG reagent, read-out: Proliferation inhibitory activity IC50 (nM) NCI-N87
Experimental: as §1

NUGC-4 = settings: Homo sapiens, 120 h; racemates; NUGC-4 cells; 5 days of culture; CTG reagent; read-out: Proliferation inhibitory activity IC50 (nM) NUGC-4
Experimental: as §1

SNU-423 = settings: Homo sapiens, 120 h; racemates; SNU-423 cells; 5 days of culture; CTG reagent; read-out: Proliferation inhibitory activity IC50 (nM) SNU-423
Experimental: as §1

HCC1954 = settings: Homo sapiens, 120 h, racemates, 5 days of culture, CTG reagent, read-out: Proliferation inhibitory activity IC50 (nM) HCC1954
Experimental: as §1

Ls174T = settings: Homo sapiens, 120 h, racemates, 5 days of culture, CTG reagent, read-out: Proliferation inhibitory activity IC50 (nM) Ls174T
Experimental: as §1

SK-OV-3 = settings: Homo sapiens, 120 h; racemates; SK-OV-3 cells; 5 days of culture; CTG reagent; read-out: Proliferation inhibitory activity IC50 (nM) SK-OV-3
Experimental: as §1

[1] = Table 3, chirally resolved compounds

For COc1cc(-c2ncco2)cc2c1[C@]1(O)[C@H](O)[C@H](C(=O)N(C)OC)[C@@H](c3cccc(O)c3)[C@]1(c1ccc(C#N)cc1)O2 (racemic) [Racemate of compound 15], which IC50 (MKN-45) is on record?
The IC50 was 2.65 nM.

How did the IC50 (BT474; racemates) turn out when COc1ccc([C@@]23Oc4cc(-c5ncco5)cc(OC)c4[C@]2(O)[C@H](O)[C@H](C(=O)N2CC(O)C2)[C@H]3c2ccccc2)cc1 (racemic) [Racemate of compound 48] was run?
Its IC50 is 2.25 nM.

How did the IC50 (DLD-1; racemates) turn out when COc1ccc([C@@]23Oc4cc(-c5ncco5)ccc4[C@]2(O)[C@H](O)[C@H](C(=O)N(C)C)[C@H]3c2ccccc2)cc1 (racemic) [Racemate of compound 57] was run?
The IC50 was 2.35 nM.

For COC(=O)[C@H]1[C@@H](O)[C@@]2(O)c3c(OC)cc(-c4cnco4)cc3O[C@@]2(c2ccc(C#N)cc2)[C@@H]1c1cccc(N)c1 (racemic) [Racemate of compound 3], which IC50 (NCI-N87) is on record?
The IC50 was 3.63 nM.

What about the IC50 (NUGC-4) of the same compound?
Its IC50 is 3.51 nM.

What about the IC50 (SNU-423) of the same compound?
The IC50 was 8.18 nM.

COc1cc(-c2cscn2)cc2c1[C@]1(O)[C@H](O)[C@H](C(=O)N(C)C)[C@@H](c3cccc(N)c3)[C@]1(c1ccc(C#N)cc1)O2 (racemic) [Racemate of compound 111] was tested. Which IC50 (HCC1954) did it give?
The IC50 was 2.98 nM.

For COc1cc(-c2ncco2)cc2c1[C@]1(O)[C@H](O)[C@H](C(=O)N(C)OC)[C@@H](c3cccc(N)c3)[C@]1(c1ccc(C#N)cc1)O2 [Compound 4], which IC50 (BT474; [1]) is on record?
Its IC50 is under 10 nM.

What about the IC50 (DLD-1; [1]) of the same compound?
The IC50 was under 10 nM.

For COc1ccc([C@@]23Oc4cc(-c5nc(CO)co5)cc(OC)c4[C@]2(O)[C@@H](N(C)C)C[C@H]3c2ccccc2)cc1 (racemic) [Racemate of compound 107], which IC50 (DLD-1; racemates) is on record?
The IC50 was 0.92 nM.

How did the IC50 (HCC1954) turn out when COc1ccc([C@@]23Oc4cc(-c5ncco5)cc(OC)c4[C@]2(O)[C@@H](CNC(=O)CN(C)C)C[C@H]3c2cccc(N)c2)cc1 (racemic) [Racemate of compound 93] was run?
Its IC50 is 1.5 nM.

COc1cc(-c2ncc(C#N)cn2)cc2c1[C@]1(O)[C@H](O)[C@H](C(=O)N(C)OC)[C@@H](c3cccc(N)c3)[C@]1(c1ccc(C#N)cc1)O2 (racemic) [Racemate of compound 30] was tested. Which IC50 (MKN-45) did it give?
Its IC50 is 1.5 nM.

For COc1cc(-c2ncco2)cc2c1[C@]1(O)[C@H](O)[C@H](C(=O)N3CC(O)C3)[C@@H](c3ccccc3)[C@]1(c1ccc(C#N)cc1)O2 (racemic) [Racemate of compound 16], which IC50 (MKN-45) is on record?
Its IC50 is 2.34 nM.

What does the source list for COc1ccc([C@@]23Oc4cc(-c5ncco5)cc(OC)c4[C@]2(O)[C@@H](CN)[C@H](CO)[C@H]3c2ccccc2)cc1 (racemic) [Racemate of compound 9]?
IC50 (BT474; racemates): 0.829 nM; IC50 (MKN-45): 0.695 nM

Which results are given for COc1ccc([C@@]23Oc4cc(-c5ncco5)cc(OC)c4[C@]2(O)[C@@H](N(C)C)C[C@H]3c2cccc(N)c2)cc1 (single isomer, unassigned) [Compound 98]?
IC50 (BT474; [1]): < 10 nM; IC50 (DLD-1; [1]): < 10 nM

How did the IC50 (BT474; racemates) turn out when COc1ccc([C@@]23Oc4cc(OC)cc(OC)c4[C@]2(O)[C@H](O)[C@H](C(=O)N(C)C)[C@H]3c2ccccc2)cc1 [Rocaglamide, reference compound] was run?
Its IC50 is 5.49 nM.

What about the IC50 (DLD-1; racemates) of the same compound?
The IC50 was 8.19 nM.

What about the IC50 (HCC1954) of the same compound?
Its IC50 is 2.66 nM.

And the IC50 (Ls174T)?
Its IC50 is 6.08 nM.

What about the IC50 (MKN-45) of the same compound?
Its IC50 is 5.75 nM.

What about the IC50 (NCI-N87) of the same compound?
Its IC50 is 9.32 nM.

And the IC50 (NUGC-4)?
Its IC50 is 8.25 nM.

And the IC50 (SK-OV-3)?
Its IC50 is 8.52 nM.

And the IC50 (SNU-423)?
The IC50 was 14.4 nM.

What does the source list for COc1ccc([C@@]23Oc4cc(-c5ncco5)cc(OC)c4[C@]2(O)[C@@H](C#N)C[C@H]3c2cccc(N)c2)cc1 (racemic) [Racemate of compound 86]?
IC50 (DLD-1; racemates): 2.99 nM; IC50 (HCC1954): 2.15 nM

How did the IC50 (BT474; [1]) turn out when COc1ccc([C@@]23Oc4cc(-c5ncco5)cc(OC)c4[C@]2(O)[C@H](O)C[C@H]3c2cccc(N)c2)cc1 (single isomer, unassigned) [Compound 49] was run?
Its IC50 is under 10 nM.

COc1ccc([C@@]23Oc4cc(-c5ncco5)cc(OC)c4[C@]2(O)[C@@H](CNC(=O)[C@H](CO)N(C)C)C[C@H]3c2ccccc2)cc1 (racemic) [Racemate of compound 89] was tested. Which IC50 (DLD-1; racemates) did it give?
Its IC50 is 1.35 nM.

How did the IC50 (MKN-45) turn out when COc1cnc(-c2cc(OC)c3c(c2)O[C@@]2(c4ccc(C#N)cc4)[C@H](c4cccc(N)c4)[C@@H](C(=O)N(C)OC)[C@@H](O)[C@@]32O)cn1 (racemic) [Racemate of compound 43] was run?
Its IC50 is 2 nM.

How did the IC50 (BT474; racemates) turn out when COc1cc(-c2ncco2)cc2c1[C@]1(O)[C@H](O)[C@H](C(=O)N(C)OC)[C@@H](c3cccc(N)c3)[C@]1(c1ccc(C#N)cc1)O2 (racemic) [Racemate of compound 4] was run?
Its IC50 is 3.04 nM.

And the IC50 (MKN-45)?
Its IC50 is 1.4 nM.

Which IC50 (DLD-1; racemates) does the source give for COc1ccc([C@@]23Oc4cc(-c5ncco5)cc(OC)c4[C@]2(O)[C@@H](CNC(=O)COCCO)C[C@H]3c2ccccc2)cc1 (racemic) [Racemate of compound 91] here?
The IC50 was 2.16 nM.

How did the IC50 (DLD-1; racemates) turn out when COc1ccc([C@@]23Oc4cc(-c5ncco5)cc(OC)c4[C@]2(O)[C@@H](CNC(=O)NO)C[C@H]3c2ccccc2)cc1 (racemic) [Racemate of compound 87] was run?
Its IC50 is 2.84 nM.

COC(=O)[C@H]1[C@@H](O)[C@@]2(O)c3c(OC)cc(-c4ncco4)cc3O[C@@]2(c2ccc(C#N)cc2)[C@@H]1c1cccc(N)c1 (racemic) [Racemate of compound 2] was tested. Which IC50 (BT474; racemates) did it give?
Its IC50 is 3.33 nM.

And the IC50 (NCI-N87)?
The IC50 was 2.07 nM.

And the IC50 (NUGC-4)?
Its IC50 is 1.98 nM.

And the IC50 (SK-OV-3)?
Its IC50 is 2.05 nM.

What about the IC50 (SNU-423) of the same compound?
Its IC50 is 3.67 nM.

For COc1ccc([C@@]23Oc4cc(-c5ncco5)cc(OC)c4[C@]2(O)[C@@H](CNC(=O)CN(C)C)C[C@H]3c2cccc(N)c2)cc1 (single isomer, unassigned) [Compound 93], which IC50 (BT474; [1]) is on record?
Its IC50 is under 10 nM.

And the IC50 (DLD-1; [1])?
Its IC50 is under 10 nM.

COc1cc(-c2ncc(C(F)(F)F)cn2)cc2c1[C@]1(O)[C@H](O)[C@H](C(=O)N(C)OC)[C@@H](c3cccc(N)c3)[C@]1(c1ccc(C#N)cc1)O2 (racemic) [Racemate of compound 32] was tested. Which IC50 (Ls174T) did it give?
Its IC50 is 5.45 nM.

For COc1cnc(-c2cc(OC)c3c(c2)O[C@@]2(c4ccc(C#N)cc4)[C@H](c4cccc(N)c4)[C@@H](C(=O)N(C)OC)[C@@H](O)[C@@]32O)nc1 (racemic) [Racemate of compound 31], which IC50 (MKN-45) is on record?
The IC50 was 1.32 nM.
